Assay [1] has as its target T1, AHR (Homo sapiens, UniProt P35869).
T1 sequence (P35869 11-848): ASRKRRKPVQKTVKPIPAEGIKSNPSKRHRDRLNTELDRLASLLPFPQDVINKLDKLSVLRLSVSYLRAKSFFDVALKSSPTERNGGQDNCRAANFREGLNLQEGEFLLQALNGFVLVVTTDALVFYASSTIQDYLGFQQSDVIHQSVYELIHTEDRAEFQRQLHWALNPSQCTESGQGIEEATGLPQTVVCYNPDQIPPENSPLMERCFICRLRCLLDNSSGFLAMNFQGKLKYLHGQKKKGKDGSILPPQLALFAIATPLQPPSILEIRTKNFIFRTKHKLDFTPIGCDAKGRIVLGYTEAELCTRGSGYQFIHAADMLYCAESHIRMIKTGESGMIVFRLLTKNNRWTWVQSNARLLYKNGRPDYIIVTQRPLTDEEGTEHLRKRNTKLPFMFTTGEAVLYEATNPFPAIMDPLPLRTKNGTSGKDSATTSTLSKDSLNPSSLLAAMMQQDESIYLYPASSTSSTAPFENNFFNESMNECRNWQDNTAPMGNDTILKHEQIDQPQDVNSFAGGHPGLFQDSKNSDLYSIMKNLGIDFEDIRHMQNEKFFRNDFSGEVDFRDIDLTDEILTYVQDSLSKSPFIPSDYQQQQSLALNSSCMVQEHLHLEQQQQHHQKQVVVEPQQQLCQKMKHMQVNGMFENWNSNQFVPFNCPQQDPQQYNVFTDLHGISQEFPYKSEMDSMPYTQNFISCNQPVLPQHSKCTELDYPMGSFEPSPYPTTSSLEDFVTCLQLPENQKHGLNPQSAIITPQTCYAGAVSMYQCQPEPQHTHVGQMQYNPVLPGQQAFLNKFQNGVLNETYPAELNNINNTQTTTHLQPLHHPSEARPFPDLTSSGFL
Kind of assay: In vitro assay 2: agonism in human cell line (transactivation assay, U87 cells, DRE firefly luciferase reporter). It counts as cell-based. The arrangement: host or cells: U87 glioblastoma cells, stably transfected with DRE firefly luciferase and renilla reporter constructs. Conditions: no kynurenic acid, 20 hours, read-out: Assay 2: AHR-luc Hum Agonism IC50. The procedure, abridged: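 U87 glioblastoma cells with endogenous AHR, stably carrying DRE-driven firefly luciferase and constitutive renilla reporters. 300 uM kynurenic acid served as positive activation control; data normalized to positive and negative controls.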

In assay [2] the target is T1, AHR. Briefly: In vitro assay 1: antagonism in human cell line (transactivation assay, U87 cells prestimulated with kynurenic acid, DRE firefly luciferase reporter). The format is cell-based. The arrangement: host or cells: U87 glioblastoma cells, stably transfected with DRE firefly luciferase and renilla reporter constructs. Conditions: 150 uM kynurenic acid, 20 hours, read-out: Assay 1: AHR-luc Hum Antagonism IC50. Put shortly:
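U87 glioblastoma cells with endogenous AHR, stably carrying a DRE-driven firefly luciferase reporter and a constitutive renilla reporter. Cells prestimulated with the AHR agonist kynurenic acid before compound addition; data normalized to positive and negative controls.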

Each structure is given as a SMILES string. pIC50: −log10 of the molar value.

Take `C[C@H](O)[C@H](C)NC(=O)c1cc(-c2ccc(OC(F)F)cc2)nn(-c2cccnc2)c1=O` [Example 334, 6-[4-(Difluoromethoxy)phenyl]-N-[(2S,3S)-3-hydroxybutan-2-yl]-3-oxo-2-(pyridin-3-yl)-2,3-dihydropyridazine-4-carboxamide]: the negative-log IC50 (pIC50) in assay [1] is less than 4.70; in assay [2], 7.22.

For the compound `C[C@@H](NC(=O)c1cc(-c2ccc(Cl)cc2)nn(-c2cn[nH]c2)c1=O)C(C)(C)O` [Example 325, 6-(4-Chlorophenyl)-N-[(2R)-3-hydroxy-3-methylbutan-2-yl]-3-oxo-2-(1H-pyrazol-4-yl)-2,3-dihydropyridazine-4-carboxamide], the values for the pIC50 in assay [1] and in assay [2] were less than 4.70 and 6.62, respectively.

In the case of `CC(C)(O)CNC(=O)c1cc(-c2ccc(Cl)cc2)nn(-c2ccnnc2)c1=O` [Example 178, 3-(4-Chlorophenyl)-N-(2-hydroxy-2-methylpropyl)-6-oxo-6H-1,4′-bipyridazine-5-carboxamide], the pIC50 in assay [1] is less than 4.70; in assay [2] it was 6.23.

Regarding `O=C(N[C@@H](CO)C(F)(F)F)c1cc(-c2ccc(Cl)cc2)nn(-c2cccnc2)c1=O` [Example 95, (−)-6-(4-Chlorophenyl)-3-oxo-2-(pyridin-3-yl)-N-[(2S)-1,1,1-trifluoro-3-hydroxypropan-2-yl]-2,3-dihydropyridazine-4-carboxamide], the pIC50 in assay [1] is less than 4.70; in assay [2], 7.21.

For `O=C(N[C@H]1COCC[C@H]1O)c1cc(-c2ccc(C(F)(F)F)nc2)nn(-c2cncc(F)c2)c1=O` [Example 343, 1,5-Anhydro-2,4-dideoxy-2-[({2-(5-fluoropyridin-3-yl)-3-oxo-6-[6-(trifluoromethyl)pyridin-3-yl]-2,3-dihydropyridazine-4-yl}carbonyl)amino]-D-erythro-pentitol], the pIC50 in assay [1] is less than 4.70; in assay [2] it was 6.77.

As for `O=C(NC[C@@H](O)C(F)(F)F)c1cc(-c2ccc(OC(F)(F)F)cc2)nn(-c2cccnc2)c1=O` [Example 293, 3-Oxo-2-(pyridin-3-yl)-N-[(2R)-3,3,3-trifluoro-2-hydroxypropyl]-6-[4-(trifluoromethoxy)phenyl]-2,3-dihydropyridazine-4-carboxamide], the pIC50 in assay [1] is less than 4.70; in assay [2], 7.09.

On to `O=C(NC[C@H](O)CO)c1cc(-c2ccc(C(F)(F)F)cc2)nn(-c2cccnc2)c1=O` [Example 114, N-[(2S)-2,3-Dihydroxypropyl]-3-oxo-2-(pyridin-3-yl)-6-[4-(trifluoromethyl)phenyl]-2,3-dihydropyridazine-4-carboxamide], for which the pIC50 in assay [1] was less than 4.70; in assay [2], 7.07.

`O=C(NCC(O)C(F)(F)F)c1cc(-c2ccc(OC(F)(F)F)cc2)nn(-c2cccnc2)c1=O` (stereo not drawn) [Example 146, 3-Oxo-2-(pyridin-3-yl)-N-[3,3,3-trifluoro-2-hydroxypropyl]-6-[4-(trifluoromethoxy)phenyl]-2,3-dihydropyridazine-4-carboxamide]: the values for the pIC50 in assay [1] and in assay [2] were less than 4.70 and 7.99, respectively.

With `CC(C)(O)C(NC(=O)c1cc(-c2ccc(Cl)cc2)nn(-c2cccnc2)c1=O)C(F)(F)F` (single isomer, unassigned; enantiomer 2) [Example 123, 6-(4-Chlorophenyl)-3-oxo-2-(pyridin-3-yl)-N-(1,1,1-trifluoro-3-hydroxy-3-methylbutan-2-yl)-2,3-dihydropyridazine-4-carboxamide, Enantiomer 2], the pIC50 in assay [1] is less than 4.70; in assay [2], 8.24.

On to `CC(C)(O)CNC(=O)c1cc(-c2ccc(Cl)cc2)nn(-c2cnn(C(F)F)c2)c1=O` [Example 278, 6-(4-Chlorophenyl)-2-[1-(difluoromethyl)-1H-pyrazol-4-yl]-N-(2-hydroxy-2-methylpropyl)-3-oxo-2,3-dihydropyridazine-4-carboxamide], for which the pIC50 in assay [1] was less than 4.70; in assay [2], 6.85.

Consider `CCC(CO)NC(=O)c1cc(-c2ccc(C)cc2)nn(-c2cnn(C)c2)c1=O` (single isomer, unassigned) [Example 6, N-(1-Hydroxybutan-2-yl)-6-(4-methylphenyl)-2-(1-methyl-1H-pyrazol-4-yl)-3-oxo-2,3-dihydropyridazine-4-carboxamide], for which the pIC50 is less than 4.70 in assay [1] and 6.74 in assay [2].

Take `O=C(NC[C@H](O)C(F)(F)F)c1cc(-c2ccc(Cl)cc2)nn(-c2cnn(C3CCC3)c2)c1=O` [Example 40, 6-(4-Chlorophenyl)-2-(1-cyclobutyl-1H-pyrazol-4-yl)-3-oxo-N-[(2S)-3,3,3-trifluoro-2-hydroxypropyl]-2,3-dihydropyridazine-4-carboxamide]: the pIC50 in assay [1] was less than 4.70; in assay [2], 5.96.

`CC(C)(O)C(NC(=O)c1cc(-c2ccc(Cl)cc2)nn(-c2cncnc2)c1=O)C(F)(F)F` (stereo not drawn) [Example 185, 6-(4-Chlorophenyl)-3-oxo-2-(pyrimidin-5-yl)-N-(1,1,1-trifluoro-3-hydroxy-3-methylbutan-2-yl)-2,3-dihydropyridazine-4-carboxamide]: the negative logarithm of the IC50 (pIC50) in assay [1] was less than 4.70; in assay [2], 7.43.

As for `CC(C)(O)CNC(=O)c1cc(-c2ccc(C(F)(F)F)cc2)nn(-c2cnsc2)c1=O` [Example 208, N-(2-Hydroxy-2-methylpropyl)-3-oxo-2-(1,2-thiazol-4-yl)-6-[4-(trifluoromethyl)phenyl]-2,3-dihydropyridazine-4-carboxamide], the values for the negative logarithm of the IC50 (pIC50) in assay [1] and in assay [2] were less than 4.70 and 8.91, respectively.

For `O=C(NCC(O)C(F)F)c1cc(-c2ccc(C(F)(F)F)cc2)nn(-c2cccnc2)c1=O` (racemic) [Example 101, N-[(2RS)-3,3-Difluoro-2-hydroxypropyl]-3-oxo-2-(pyridin-3-yl)-6-[4-(trifluoromethyl)phenyl]-2,3-dihydropyridazine-4-carboxamide], the pIC50 in assay [1] is less than 4.70; in assay [2], 8.02.

With `Cn1cc(-n2nc(-c3ccc(Cl)cc3)cc(C(=O)NC[C@@H](O)CO)c2=O)cn1` [Example 28, 6-(4-Chlorophenyl)-N-[(2R)-2,3-dihydroxypropyl]-2-(1-methyl-1H-pyrazol-4-yl)-3-oxo-2,3-dihydropyridazine-4-carboxamide], the negative-log IC50 (pIC50) in assay [1] is less than 4.70; in assay [2] it was 6.53.

Regarding `COC[C@H](CO)NC(=O)c1cc(-c2ccc(C(F)(F)F)cc2)nn(-c2cccnc2)c1=O` [Example 111, N-[(2S)-1-Hydroxy-3-methoxypropan-2-yl]-3-oxo-2-(pyridin-3-yl)-6-[4-(trifluoromethyl)phenyl]-2,3-dihydropyridazine-4-carboxamide], the pIC50 in assay [1] was less than 4.70; in assay [2], 7.58.

For the compound `Cn1cc(-n2nc(-c3ccc(Cl)cc3)cc(C(=O)N[C@H]3CCC[C@@H]3O)c2=O)cn1` (relative stereo) [Example 51, 6-(4-Chlorophenyl)-N-[(trans)-2-hydroxycyclopentyl]-2-(1-methyl-1H-pyrazol-4-yl)-3-oxo-2,3-dihydropyridazine-4-carboxamide], the negative-log IC50 (pIC50) is less than 4.70 in assay [1] and 8.02 in assay [2].

As to `Cn1cc(-n2nc(-c3ccc(Cl)cc3)cc(C(=O)N[C@@H](CO)C(F)(F)F)c2=O)cn1` [Example 34, (−)-6-(4-Chlorophenyl)-2-(1-methyl-1H-pyrazol-4-yl)-3-oxo-N-[(2S)-1,1,1-trifluoro-3-hydroxypropan-2-yl]-2,3-dihydropyridazine-4-carboxamide], the pIC50 in assay [1] is less than 4.70; in assay [2], 6.89.

For the compound `Cn1cc(-n2nc(-c3ccc(OC(F)F)cc3)cc(C(=O)NC(C(C)(C)O)C(F)(F)F)c2=O)cn1` (single isomer, unassigned) [Example 306, 6-[4-(Difluoromethoxy)phenyl]-2-(1-methyl-1H-pyrazol-4-yl)-3-oxo-N-(1,1,1-trifluoro-3-hydroxy-3-methylbutan-2-yl)-2,3-dihydropyridazine-4-carboxamide], the values for the negative logarithm of the IC50 (pIC50) in assay [1] and in assay [2] were less than 4.70 and 8.88, respectively.

For `O=C(NC[C@H](O)C(F)(F)F)c1cc(-c2ccc(C(F)(F)F)cc2)nn(-c2cnn(C(F)F)c2)c1=O` [Example 223, 2-[1-(Difluoromethyl)-1H-pyrazol-4-yl]-3-oxo-N-[(2S)-3,3,3-trifluoro-2-hydroxypropyl]-6-[4-(trifluoromethyl)phenyl]-2,3-dihydropyridazine-4-carboxamide], the pIC50 in assay [1] was less than 4.70; in assay [2] it was 8.37.
